Laboratory results as given in patent US12552780B2, “Small molecule compound serving as jak kinase inhibitor, and use thereof” (TECHNODERMA MEDICINES, INC., priority 2020, dated 2026).
Where two headings read alike, the source gives them in different places.

Key:
Type in all cases: biochemical
[1] = biological target: JAK1 (Homo sapiens, UniProt P23458); experiment: Detection of enzyme activity inhibition of JAK kinases (ULight-JAK substrate, Eu-antibody), JAK1; details: JAK1 20 nM, ATP 40 μM, substrate 50 nM, 2 hours reaction at room temperature, read-out: JAK1 half-maximum inhibitory concentration (IC50)
Sequence of JAK1 (P23458 whole entry): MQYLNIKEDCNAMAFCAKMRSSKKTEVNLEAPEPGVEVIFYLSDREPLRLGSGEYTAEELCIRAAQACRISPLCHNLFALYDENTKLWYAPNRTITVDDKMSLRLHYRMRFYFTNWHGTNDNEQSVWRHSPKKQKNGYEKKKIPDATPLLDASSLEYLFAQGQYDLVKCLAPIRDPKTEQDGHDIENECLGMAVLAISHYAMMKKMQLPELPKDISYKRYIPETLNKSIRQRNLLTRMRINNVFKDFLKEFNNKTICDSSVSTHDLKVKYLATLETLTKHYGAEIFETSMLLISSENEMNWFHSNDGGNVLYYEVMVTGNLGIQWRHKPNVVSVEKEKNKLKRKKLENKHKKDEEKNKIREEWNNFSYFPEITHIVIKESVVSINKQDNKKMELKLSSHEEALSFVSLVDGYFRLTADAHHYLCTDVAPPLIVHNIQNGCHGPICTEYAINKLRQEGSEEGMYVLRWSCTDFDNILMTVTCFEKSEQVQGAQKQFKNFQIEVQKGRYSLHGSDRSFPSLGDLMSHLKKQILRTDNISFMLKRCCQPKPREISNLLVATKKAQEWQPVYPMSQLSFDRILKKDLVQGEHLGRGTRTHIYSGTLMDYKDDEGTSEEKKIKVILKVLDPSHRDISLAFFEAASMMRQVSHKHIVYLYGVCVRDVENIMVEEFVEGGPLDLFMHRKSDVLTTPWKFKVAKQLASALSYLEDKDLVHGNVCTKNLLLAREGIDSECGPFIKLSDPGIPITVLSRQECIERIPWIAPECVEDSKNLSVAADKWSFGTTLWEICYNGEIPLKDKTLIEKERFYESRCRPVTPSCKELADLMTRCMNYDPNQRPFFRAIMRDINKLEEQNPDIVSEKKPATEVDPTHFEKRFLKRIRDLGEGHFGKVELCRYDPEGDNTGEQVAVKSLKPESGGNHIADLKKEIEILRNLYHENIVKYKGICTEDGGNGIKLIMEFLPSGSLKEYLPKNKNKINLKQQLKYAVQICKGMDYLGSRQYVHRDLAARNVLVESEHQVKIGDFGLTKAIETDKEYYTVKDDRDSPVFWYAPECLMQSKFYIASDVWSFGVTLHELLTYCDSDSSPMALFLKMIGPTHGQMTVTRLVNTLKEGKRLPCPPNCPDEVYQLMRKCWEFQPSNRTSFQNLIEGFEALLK
Procedure: (§1) Kinase reaction buffer: The kinase reaction buffer was prepared with the following components: 50 mM HEPES, pH 7.5, 1 mM EGTA, 10 mM MgCl2, 2 mM DTT, and 0.01% Tween20. 1× test buffer: A test buffer was prepared, and the 10× test buffer was diluted with deionized water (deionized water: test buffer=9:1) to obtain the 1× test buffer. 4× kinase solution: JAK kinase was diluted with a kinase reaction buffer to a final concentration of 4× (JAK1:80 nM, JAK2/JAK3/Tyk2:4 nM). 4× substrate solution: ULight™-JAK (Tyr1023) substrate was diluted with the kinase reaction buffer to 200 nM (final concentration: 50 nM). 4× ATP solution: ATP was diluted with the kinase reaction buffer to a final concentration of 4× (JAK1:160 μM, JAK2/JAK3/Tyk2: 40 μM). 4× test compound solution: The compounds to be tested were dissolved in DMSO to prepare 10 mM stock solutions, which were diluted to have the desired concentrations through 3-fold gradient dilution, 10 concentrations were set for each compound, and final concentrations of the test compounds ranged from 10 μM to 0.5 nM. 4× enzyme reaction termination solution: EDTA was dissolved in a 1× test buffer to 40 mM (final concentration of EDTA: 10 mM). 4× test antibody solution: Eu-labeled test antibodies (anti-phosphotyrosine (PT66)) were diluted with 1× test buffer to 8 nM (final concentration of the antibodies: 2 nM). 2.5 μL of the 4× kinase solution and 2.5 μL of each of the 4× test compound solutions having different concentrations were added into a 384-well microwell plate sequentially, with 2 duplicate wells set for each concentration, and an enzyme solution blank control group and a negative control group (DMSO group) were also provided. The 384-well plate was oscillated to mix the enzyme and the compound uniformly, centrifuged at 1000 rpm for 1 minute, and incubated at room temperature for 60 minutes. 2.5 μL of the 4× substrate solution was added into the 384-well plate, and centrifuged at 1000 rpm for 1 minute. 2.5 μL of the 4× ATP solution was added into the 384-well plate, and centrifuged at 1000 rpm for 1 minute to start the enzyme reaction. JAK1 reacted at room temperature for 2 hours, and JAK2/JAK3/Tyk2 reacted at room temperature for 1 hour. The final concentration of each component in the JAK1 reaction was: JAK1:20 nM; substrate: 50 nM; and ATP: 40 μM. The final concentrations of the test compounds ranged from 10 μM to 0.5 nM. The final concentration of each component in the JAK2/JAK3/Tyk2 reaction was: JAK2:1 nM; substrate: 50 nM; and ATP: 10 μM. The final concentrations of the test compounds ranged from 10 μM to 0.5 nM. After the enzyme reaction ended, 5 μL of the 4× enzyme reaction termination solution was added into each well of the 384-well plate, centrifuged at 1000 rpm for 1 minute, and incubated at room temperature for 5 minutes. 5 μL of the 4× test antibody solution (final concentration of the test antibodies was 2 nM) was added into each well of the 384-well plate, centrifuged at 1000 rpm for 1 minute, and incubated at room temperature for 1 hour. After incubation of the antibodies, a signal value of each well was measured with Envision plate reader. Assuming that an inhibition rate of the enzyme solution blank control group was 100% and an inhibition rate of the negative control group (DMSO group) was 0%, an inhibition rate corresponding to each concentration was calculated. Nonlinear regression analysis was performed on the concentration logarithm values and corresponding percentage inhibition rates of the test compounds in GraphPad Prism software to obtain the half-maximum inhibitory concentrations (IC50) of the test compounds.

[2] = biological target: JAK2 (Homo sapiens, UniProt O60674); experiment: Detection of enzyme activity inhibition of JAK kinases (ULight-JAK substrate, Eu-antibody), JAK2; details: JAK2 1 nM, ATP 10 μM, substrate 50 nM, 1 hour reaction at room temperature, read-out: JAK2 half-maximum inhibitory concentration (IC50)
Sequence of JAK2 (O60674 whole entry): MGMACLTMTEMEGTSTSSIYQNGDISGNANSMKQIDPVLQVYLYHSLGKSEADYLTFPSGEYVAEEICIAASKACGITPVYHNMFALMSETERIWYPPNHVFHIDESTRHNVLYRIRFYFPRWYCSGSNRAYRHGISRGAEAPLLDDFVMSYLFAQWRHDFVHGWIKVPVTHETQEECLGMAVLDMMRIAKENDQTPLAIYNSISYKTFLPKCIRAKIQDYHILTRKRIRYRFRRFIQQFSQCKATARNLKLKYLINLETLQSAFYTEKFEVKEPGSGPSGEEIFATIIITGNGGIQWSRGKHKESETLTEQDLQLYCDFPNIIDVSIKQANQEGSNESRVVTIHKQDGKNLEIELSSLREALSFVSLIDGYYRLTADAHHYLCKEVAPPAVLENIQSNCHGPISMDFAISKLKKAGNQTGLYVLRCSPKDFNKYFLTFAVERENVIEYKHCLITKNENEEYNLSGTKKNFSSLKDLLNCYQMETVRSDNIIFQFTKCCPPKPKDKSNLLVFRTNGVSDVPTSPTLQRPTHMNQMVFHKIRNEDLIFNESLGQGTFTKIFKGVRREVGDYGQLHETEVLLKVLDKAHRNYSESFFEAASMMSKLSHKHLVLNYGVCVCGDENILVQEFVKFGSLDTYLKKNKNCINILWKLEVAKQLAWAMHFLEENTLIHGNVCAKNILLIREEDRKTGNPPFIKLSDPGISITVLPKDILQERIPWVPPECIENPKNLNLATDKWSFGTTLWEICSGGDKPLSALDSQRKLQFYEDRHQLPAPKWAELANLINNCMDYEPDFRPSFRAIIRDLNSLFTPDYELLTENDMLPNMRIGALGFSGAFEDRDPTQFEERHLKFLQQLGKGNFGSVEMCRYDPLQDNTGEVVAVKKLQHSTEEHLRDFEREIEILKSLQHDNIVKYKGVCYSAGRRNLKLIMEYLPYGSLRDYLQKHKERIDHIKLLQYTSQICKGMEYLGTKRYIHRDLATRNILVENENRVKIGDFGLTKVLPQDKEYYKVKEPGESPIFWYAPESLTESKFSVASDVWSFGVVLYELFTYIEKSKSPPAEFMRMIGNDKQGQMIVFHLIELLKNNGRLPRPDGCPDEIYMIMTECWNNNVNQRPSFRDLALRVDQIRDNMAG
Procedure: as §1

[3] = biological target: T1, JAK3 (Homo sapiens, UniProt P52333); experiment: Detection of enzyme activity inhibition of JAK kinases (ULight-JAK substrate, Eu-antibody), JAK3; details: ATP 10 μM, substrate 50 nM, 1 hour reaction at room temperature; read-out: JAK3 half-maximum inhibitory concentration (IC50)
T1 sequence (P52333 1-1124): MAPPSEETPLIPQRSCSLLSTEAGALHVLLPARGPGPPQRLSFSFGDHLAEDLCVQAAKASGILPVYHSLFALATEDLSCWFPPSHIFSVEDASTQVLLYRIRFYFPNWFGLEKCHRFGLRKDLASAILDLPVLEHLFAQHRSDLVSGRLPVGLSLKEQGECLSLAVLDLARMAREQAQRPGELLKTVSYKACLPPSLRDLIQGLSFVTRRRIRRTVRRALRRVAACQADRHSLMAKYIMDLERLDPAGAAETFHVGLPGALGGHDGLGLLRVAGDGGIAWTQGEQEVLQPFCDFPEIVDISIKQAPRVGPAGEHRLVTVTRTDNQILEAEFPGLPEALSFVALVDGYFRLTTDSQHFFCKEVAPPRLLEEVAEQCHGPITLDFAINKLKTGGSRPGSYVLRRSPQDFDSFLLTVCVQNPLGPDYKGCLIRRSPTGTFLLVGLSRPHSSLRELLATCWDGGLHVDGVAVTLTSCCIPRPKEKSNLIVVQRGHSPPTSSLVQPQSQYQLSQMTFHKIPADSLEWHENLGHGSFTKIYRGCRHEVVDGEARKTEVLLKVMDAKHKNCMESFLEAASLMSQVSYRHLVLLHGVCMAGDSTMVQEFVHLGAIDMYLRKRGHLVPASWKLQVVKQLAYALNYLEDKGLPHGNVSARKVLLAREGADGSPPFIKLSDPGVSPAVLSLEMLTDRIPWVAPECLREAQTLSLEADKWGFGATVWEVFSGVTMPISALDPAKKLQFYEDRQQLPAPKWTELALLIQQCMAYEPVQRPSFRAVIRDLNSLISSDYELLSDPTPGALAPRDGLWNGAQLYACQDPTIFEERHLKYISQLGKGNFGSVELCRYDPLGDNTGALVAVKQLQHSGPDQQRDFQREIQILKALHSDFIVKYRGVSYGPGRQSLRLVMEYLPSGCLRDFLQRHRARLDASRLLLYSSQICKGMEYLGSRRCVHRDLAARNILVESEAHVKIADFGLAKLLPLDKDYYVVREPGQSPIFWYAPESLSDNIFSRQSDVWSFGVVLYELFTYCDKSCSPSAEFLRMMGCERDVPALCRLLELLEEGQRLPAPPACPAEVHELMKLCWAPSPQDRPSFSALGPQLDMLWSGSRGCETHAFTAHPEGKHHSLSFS
Procedure: as §1

[4] = biological target: Tyk2 (Homo sapiens, UniProt P29597); experiment: Detection of enzyme activity inhibition of JAK kinases (ULight-JAK substrate, Eu-antibody), Tyk2; details: ATP 10 μM, substrate 50 nM, 1 hour reaction at room temperature, read-out: Tyk2 half-maximum inhibitory concentration (IC50)
Sequence of Tyk2 (P29597 whole entry): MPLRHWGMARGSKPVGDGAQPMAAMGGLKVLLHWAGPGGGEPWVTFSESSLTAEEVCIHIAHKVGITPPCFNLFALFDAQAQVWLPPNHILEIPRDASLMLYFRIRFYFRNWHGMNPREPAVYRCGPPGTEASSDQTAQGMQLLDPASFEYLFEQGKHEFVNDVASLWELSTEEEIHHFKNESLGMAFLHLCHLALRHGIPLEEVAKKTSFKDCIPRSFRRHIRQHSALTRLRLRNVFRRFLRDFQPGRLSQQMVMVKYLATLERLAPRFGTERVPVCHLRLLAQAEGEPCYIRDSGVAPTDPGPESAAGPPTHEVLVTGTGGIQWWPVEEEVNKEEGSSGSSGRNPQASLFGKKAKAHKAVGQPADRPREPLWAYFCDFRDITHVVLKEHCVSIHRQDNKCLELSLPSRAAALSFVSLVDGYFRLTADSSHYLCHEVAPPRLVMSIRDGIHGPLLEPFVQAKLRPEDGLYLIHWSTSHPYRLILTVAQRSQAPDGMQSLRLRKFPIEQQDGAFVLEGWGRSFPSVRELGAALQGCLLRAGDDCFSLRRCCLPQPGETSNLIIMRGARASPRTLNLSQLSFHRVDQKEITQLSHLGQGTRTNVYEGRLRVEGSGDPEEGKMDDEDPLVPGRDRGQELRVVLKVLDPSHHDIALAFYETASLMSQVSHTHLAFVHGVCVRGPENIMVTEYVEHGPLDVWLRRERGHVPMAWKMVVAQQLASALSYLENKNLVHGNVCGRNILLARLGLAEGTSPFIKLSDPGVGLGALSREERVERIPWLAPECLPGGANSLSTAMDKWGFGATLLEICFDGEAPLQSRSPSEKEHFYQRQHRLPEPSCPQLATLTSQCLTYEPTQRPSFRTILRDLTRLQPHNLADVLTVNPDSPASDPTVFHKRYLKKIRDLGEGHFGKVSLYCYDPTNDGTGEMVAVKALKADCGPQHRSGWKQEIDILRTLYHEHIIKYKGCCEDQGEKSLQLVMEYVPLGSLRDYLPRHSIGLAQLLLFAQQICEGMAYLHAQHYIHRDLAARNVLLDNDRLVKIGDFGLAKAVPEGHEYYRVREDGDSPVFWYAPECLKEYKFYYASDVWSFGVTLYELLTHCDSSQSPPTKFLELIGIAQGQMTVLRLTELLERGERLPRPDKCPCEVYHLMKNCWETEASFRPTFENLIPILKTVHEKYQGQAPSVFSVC
Procedure: as §1

Row | Compound | IC50 ([1]; listed as TDM-18097) | IC50 [1] | IC50 ([2]; listed as TDM-18097) | IC50 [2] | IC50 [3] | IC50 ([4]; listed as TDM-18097) | IC50 [4]
1 | (S)-4-((4-(1-(3-(cyanomethyl)-1-(2,2-difluorocyclopropane-1-carbonyl)azetidin-3-yl)-1H-pyrrol-3-yi)pyrimidin-2-yl)amino)-N-ethyl-2-methylbenzamide [TDM-180978] | ~10 nM | 7 nM | ~10 nM | 12 nM | 280 nM | ~10 nM | 11 nM
2 | CNC(=O)c1ncc(Nc2nccc(-c3ccn(C4(CC#N)CN(C(=O)[C@@H]5CC5(F)F)C4)c3)n2)cc1C [TDM-180976, (S)-5-((4-(1-(3-(cyanomethyl)-1-(2,2-difluorocyclopropane-1-carbonyl)azetidin-3-yl)-1H-pyrrol-3-yl)pyrimidin-2-yl)amino)-N,3-dimethylpyridinecarboxamide] |  | 9 nM |  | 13 nM | 599 nM |  | 9 nM
3 | Cc1cc(Nc2nccc(-c3ccn(C4(CC#N)CN(C(=O)[C@@H]5CC5(F)F)C4)c3)n2)cnc1C(N)=O [TDM-180975, (S)-5-((4-(1-(3-(cyanomethyl)-1-(2,2-difluorocyclopropane-1-carbonyl)azetidin-3-yl)-1H-pyrrol-3-yl)pyrimidin-2-yl)amino)-3-methylpyridinolineamide] |  | 12 nM |  | 7 nM | 674 nM |  | 8 nM
4 | CCNC(=O)c1ccc(Nc2nccc(-c3cnn(C4(CC#N)CN(C(=O)[C@@H]5CC5(F)F)C4)c3)n2)cc1 [TDM-180982, (S)-4-((4-(1-(3-(cyanomethyl)-1-(2,2-difluorocyclopropane-1-carbony)azetidn-3-yl)-1H-pyrazol-4-yl)pyrimidin-2-yl)amino)-N-ethylbenzamide] |  | 18 nM |  | 22 nM | 1300 nM |  | 19 nM
5 | CNC(=O)c1ncc(Nc2nccc(-c3cnn(C4(CC#N)CN(C(=O)[C@@H]5CC5(F)F)C4)c3)n2)cc1C [TDM-180985, (S)-5-((4-(1-(3-(cyanomethyl)-1-(2,2-difluorocyclopropane-1-carbonyl)azetidin-3-yl)-1H-pyrazol-4-yl)pyrimidin-2-yl)amino)-N,3-dimethylpyridinecarboxamide] |  | 54 nM |  | 64 nM | 2370 nM |  | 21 nM
6 | CCNC(=O)c1ccc(Nc2nccc(-c3ccn(C4(CC#N)CN(C(=O)[C@@H]5CC5(F)F)C4)c3)n2)cc1 [TDM-180973, (S)-4-((4-(1-(3-(cyanomethyl)-1-(2,2-difluorocyclopropane-1-carbonyl)azetidin-3-yl)-1H-pyrrol-3-yl)pyrimidin-2-yl)amino)-N-ethylbenzamide] |  |  |  | 9 nM | 443 nM |  | 7 nM
7 | CCNC(=O)c1ccc(Nc2nccc(-c3cnn(C4(CC#N)CN(C(=O)[C@@H]5CC5(F)F)C4)c3)n2)cc1C [TDM-180983] |  | 45 nM |  | 27 nM | 791 nM |  | 17 nM

Now from value to compound:

Row | IC50 ([1]; listed as TDM-18097) | IC50 [1] | IC50 ([2]; listed as TDM-18097) | IC50 [2] | IC50 [3] | IC50 ([4]; listed as TDM-18097) | IC50 [4] | Compound
8 |  | 55 nM |  | 38 nM | 843 nM |  | 39 nM | CC(CO)c1ccc(Nc2nccc(-c3ccn(C4(CC#N)CN(C(=O)[C@@H]5CC5(F)F)C4)c3)n2)cn1 (stereo partly drawn) [TDM-180996, 2-(1-((S)-2,2-difluorocyclopropane-1-carbonyl)-3-(3-(2-((6-(1-hydroxypropan-2-yl)pyridine-3-yl)amino)pyrimidin-4-yl)-1H-pyrrol-1-yl)azetidin-3-yl) acetonitrile]
9 |  | 125 nM |  | 52 nM | 3060 nM |  | 56 nM | Cc1cc(Nc2nccc(-c3cnn(C4(CC#N)CN(C(=O)[C@@H]5CC5(F)F)C4)c3)n2)cnc1C(N)=O [TDM-180986, (S)-5-((4-(1-(3-(cyanomethyl)-1-(2,2-difluorocyclopropane-1-carbonyl)azetidin-3-yl)-1H-pyrazol-4-yl)pyrimidin2-yl)amino)-3-methylpyridinolineamide]
10 |  | 224 nM |  |  |  |  | 112 nM | CC(CO)c1ccc(Nc2nccc(-c3cnn(C4(CC#N)CN(C(=O)[C@@H]5CC5(F)F)C4)c3)n2)cn1 (stereo partly drawn) [TDM-180990, 2-(1-((S)-2,2-difluorocyclopropane-1-carbonyl)-3-(4-(2-((6-(1-hydroxypropan-2-yl)pyridine-3-yl)amino)pyrimidin-4-yl)-1H-pyrazol-1-yl)azetidin-3-yl)acetonitrile]
